Measurements: PMC10975527 (Viruses, 2024)
Like-named read-outs stand apart in the source and are kept apart here.

Columns and labels:
RSV = assay: Antiviral selectivity panel: RSV; format: cell-based; conditions: human respiratory syncytial virus, HEp-2; HEp2 (human epithelial)
HBV [1] = assay: HBV life cycle analysis in HepG2.2.15 cells; format: cell-based, hepatitis B virus; conditions: ETV 1 μM, GLS4 1 μM, AB-161 100 nM
HBV [2] = assay: HBV antiviral assay in HepG2.2.15 cells (HBsAg/HBeAg CLIA, secreted HBV DNA PCR); format: cell-based; conditions: Hepatitis B virus, HepG2.2.15, genotype D
Wild-type HBV = assay: HBV polymerase variant phenotyping in Huh-7: wild-type; conditions: Hepatitis B virus
IAV = assay: microbe, parasite or virus in culture; format: cell-based; conditions: Influenza A virus, MDBK, in Bos taurus, read-out: EC50 (IAV)
WNV = assay: Antiviral selectivity panel: WNV; format: cell-based; conditions: West Nile virus, Vero 76, in Primates; Vero76 (monkey kidney)
[3] = male, C57BL/6J, mouse, in vivo, 24 h
in vitro [4] = format: in vitro ADME; conditions: dog, plasma
[5] = system: HBsAg with wildtype HBV PRE; assay: HBV PRE variant phenotyping in Huh-7: wild-type PRE plasmid (HBsAg); format: cell-based; conditions: Hepatitis B virus, Huh-7, 120 h, read-out: HBsAg EC50
HIV = assay: Antiviral selectivity panel: HIV; format: cell-based; conditions: Human immunodeficiency virus 1; CEM-22 (human T lymphoblast)
in vitro [6] = conditions: bovine
HBV genotypes A–H = assay: HBV genotype coverage in HBV transfected Huh-7 cells (HBsAg); conditions: Hepatitis B virus
[7] = system: HBsAg with SLα deletion mutant (ΔSLα) PRE; assay: HBV PRE variant phenotyping in Huh-7: ΔSLα plasmid (HBsAg); format: cell-based; conditions: Hepatitis B virus, Huh-7, 120 h, read-out: HBsAg EC50
recombinant human PAPD7 = target: T1, recombinant human PAPD7 (Homo sapiens, UniProt Q5XG87); assay: PAPD7 ATP depletion assay; format: biochemical; conditions: 12.5 nM enzyme, 750 nM ATP, 3 h, mean of 3 experiments; read-out: IC50, PAPD7-mediated incorporation of ATP
T1 construct: made in house

Sprague Dawley rats = assay: 13-week repeat-dose toxicity study in rats; format: in vivo
in vitro [8] = conditions: hamster
in vitro [9] = format: in vitro ADME; conditions: mouse
HRV = assay: Antiviral selectivity panel: HRV; format: cell-based; conditions: Human rhinovirus sp., HEp-2; HEp2 (human epithelial)
HBV [10] = assay: HBV-infected primary human hepatocytes (PHH) antiviral assay; format: cell-based; conditions: Hepatitis B virus, Hepatocyte, genotype D
[11] = Cytotoxicity in HepG2-hNTCP cells; format: cell-based; conditions: human, HBV-infected HepG2-hNTCP-C4 cells
[12] = system: HBsAg expressed from integrated HBV; assay: HBsAg from integrated HBV in PLC/PRF/5 cells; format: cell-based; conditions: Hepatitis B virus, PLC-PRF-5, read-out: HBsAg EC50
HCV = assay: Antiviral selectivity panel: HCV; format: cell-based; conditions: Hepatitis C virus; Huh-7 (human liver)
HBV pgRNA and preS/S RNA [13] = assay: Kinetics of HBV RNA degradation in HepAD38 cells (Northern blot); format: cell-based, hepatitis B virus; conditions: HepAD38, GLS4 + AB-161 (100 nM)
HBV pgRNA and preS/S RNA [14] = assay: Northern blot of intracellular HBV RNA in HepG2.2.15 cells; format: cell-based; conditions: Hepatitis B virus, HepG2.2.15, 48 h
HBV [15] = assay: HBV-infected HepG2-hNTCP antiviral assay; format: cell-based; conditions: Hepatitis B virus, genotype D
HBV (AAV-HBV) = assay: AAV-HBV mouse model, serum HBsAg; conditions: AAV-HBV mice; for mean reduction of serum HBsAg compared to pre-dose baseline: 14 days
[16] = read-out: HBeAg EC50 (converted)
[17] = read-out: HBV RNA EC50 (converted)

T1 sequence (Q5XG87 226-558): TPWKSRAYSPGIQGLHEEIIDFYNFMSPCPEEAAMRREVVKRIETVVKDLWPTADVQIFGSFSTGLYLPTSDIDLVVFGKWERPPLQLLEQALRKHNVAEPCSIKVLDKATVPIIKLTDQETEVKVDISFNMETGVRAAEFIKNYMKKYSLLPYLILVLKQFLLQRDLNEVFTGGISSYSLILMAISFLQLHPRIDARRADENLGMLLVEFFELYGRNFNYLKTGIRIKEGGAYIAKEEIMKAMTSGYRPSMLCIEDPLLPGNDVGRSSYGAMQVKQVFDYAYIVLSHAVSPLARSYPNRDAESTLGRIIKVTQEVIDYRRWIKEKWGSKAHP

COc1cc(OC(F)F)c2nc3c(n2c1)C[C@@H](C(C)(C)C)c1cc(C(=O)O)c(=O)[nH]c1-3 [AB-161]
EC50 (RSV): > 30000 nM
HBV DNA replication (HBV [1]): inhibited
intracellular HBV RNA (pgRNA, preS/S RNA) (HBV [1]): inhibited
viral proteins: HBV core and capsid assembly (HBV [1]): inhibited
EC50 (HBV [2]; 144 h, 6-day incubation, read-out: HBsAg EC50): 2.3 ± 1 nM
EC50 (HBV [2]; secreted HBV DNA, read-out: HBV DNA EC50 (converted)): 0.36 nM
EC50 (HBV [2]; with 40% human serum, read-out: HBsAg (40% human serum) EC50 (converted)): 63 nM
EC50 (HBV [2]; [16]): 13.7 nM
EC50 (Wild-type HBV; Huh-7, read-out: EC50 (HBsAg)): 1.9 to 4.9 nM
EC50 (Wild-type HBV; Huh-7, read-out: HBsAg, EC50): 4.9 nM
EC50 (IAV): > 30000 nM
EC50 (WNV): > 30000 nM
fraction unbound AB-161 in plasma (C24h) below its EC90 [3]: at least 1 log10
fraction unbound at 6 h, 500 ng/mL (in vitro [4]): 0.047
CC50 (MRC-5 (human lung)): > 30000 nM
EC50 [5]: 2.5 nM
EC50 (HIV): > 30000 nM
CC50 (in vitro [6]): > 30000 nM
EC50 (HBV genotypes A–H; Huh-7, read-out: HBsAg EC50, HBV transfected Huh-7, range over genotypes A–H): 2.1 to 4.5 nM
EC50 (HBV genotypes A–H; Huh-7, read-out: HBsAg EC50, Huh-7, HBV genotype A): 3 ± 0.8 nM
EC50 (HBV genotypes A–H; Huh-7, read-out: HBsAg EC50, Huh-7, HBV genotype B): 2.6 ± 1.4 nM
EC50 (HBV genotypes A–H; Huh-7, read-out: HBsAg EC50, Huh-7, HBV genotype C): 2.3 ± 0.6 nM
EC50 (HBV genotypes A–H; Huh-7, read-out: HBsAg EC50, Huh-7, HBV genotype D): 4.5 ± 2.8 nM
EC50 (HBV genotypes A–H; Huh-7, read-out: HBsAg EC50, Huh-7, HBV genotype E): 2.5 ± 0.9 nM
EC50 (HBV genotypes A–H; Huh-7, read-out: HBsAg EC50, Huh-7, HBV genotype F): 3.3 ± 2.6 nM
EC50 (HBV genotypes A–H; Huh-7, read-out: HBsAg EC50, Huh-7, HBV genotype H-1): 2.4 ± 0.5 nM
EC50 (HBV genotypes A–H; Huh-7, read-out: HBsAg EC50, Huh-7, HBV genotype H-2): 2.1 ± 0.9 nM
EC50 [7]: > 100 nM
IC50 (recombinant human PAPD7): 1100 nM
reproductive safety findings (Sprague Dawley rats; male or female rats, 13-week administration, all doses): no reproductive safety findings
motor nerve conduction (Sprague Dawley rats; rats): No differences from baseline or time-matched controls
sensory nerve conduction velocity (NCV) (Sprague Dawley rats; rats, 500 mg/kg, day 70 and day 119, considered non-adverse): NCV delays were noted
CC50 (in vitro [8]): > 30000 nM
AB-161 estimated to be free (in vitro [9]; 6 h, 500 ng/mL): 2.4%
fraction unbound at 6 h, 500 ng/mL (in vitro [9]; plasma): 0.024
fraction-unbound factor (in vitro [9]; plasma, 6 h, 500 ng/mL): 0.024
EC50 (HRV): > 30000 nM
EC50 (HBV [10]; [17]): 9.6 nM
EC50 (HBV [10]; [16]): 11.9 nM
EC50 (HBV [10]; read-out: HBsAg EC50): 8.5 ± 4.7 nM
CC50 [11]: > 10000 nM
EC50 [12]: 5.9 ± 2.5 nM
EC50 (HCV): > 30000 nM
levels of pgRNA and preS/S RNA (HBV pgRNA and preS/S RNA [13]; 8 h and 16 h post-treatment): substantially reduced
migration of pgRNA and preS/S RNA (shortening of the viral transcripts) (HBV pgRNA and preS/S RNA [13]; starting at 2 h post-treatment): faster migration
EC50 (HBV pgRNA and preS/S RNA [14]; read-out: EC50, steady state level of pgRNA (3.5 kb)): 6.9 to 21 nM
EC50 (HBV pgRNA and preS/S RNA [14]; read-out: EC50, steady state level of preS/S RNA (2.4/2.1 kb)): 2.3 to 6.9 nM
CC50 (Huh-7 cells; HBV transfected Huh-7, genotypes A–H): > 50000 nM
CC50 (Huh-7 cells; Huh-7, HBV genotype A): > 50000 nM
CC50 (Huh-7 cells; Huh-7, HBV genotype C): > 50000 nM
CC50 (Huh-7 cells; Huh-7, HBV genotype D): > 50000 nM
CC50 (Huh-7 cells; Huh-7, HBV genotype E): > 50000 nM
CC50 (Huh-7 cells; Huh-7, HBV genotype F): > 50000 nM
CC50 (Huh-7 cells; Huh-7, HBV genotype H-1): > 50000 nM
CC50 (Huh-7 cells; Huh-7, HBV genotype H-2): > 50000 nM
EC50 (HBV [15]; [17]): 30.1 nM
EC50 (HBV [15]; [16]): 20.9 nM
EC50 (HBV [15]; read-out: HBsAg EC50): 25.3 ± 10.9 nM
CC50 (HEp2 (human epithelial)): > 30000 nM
mean reduction of serum HBsAg compared to pre-dose baseline (HBV (AAV-HBV); 0.3 mg/kg oral QD): 0.13 log10
mean reduction of serum HBsAg compared to pre-dose baseline (HBV (AAV-HBV); 1 mg/kg oral QD): 0.34 log10
mean reduction of serum HBsAg compared to pre-dose baseline (HBV (AAV-HBV); 10 mg/kg oral QD): 0.71 log10
mean reduction of serum HBsAg compared to pre-dose baseline (HBV (AAV-HBV); 30 mg/kg oral QD): 0.94 log10
earliest time at which inhibition of serum HBsAg was observed (HBV (AAV-HBV); after initiation of dosing): 4 days
mean maximal reduction of serum HBsAg compared to pre-dose baseline (HBV (AAV-HBV); oral QD 14 days, dose range 0.3 to 30 mg/kg): 0.94 ± 0.56 log10
